Source: the NIST ThermoML archive (doi:10.1016/j.jct.2015.12.031)

Tests used:
[1] = refractive index (Na D-line) (dimensionless); mn = molality of the nth substance listed, in mol/kg; conditions: 86.5 kPa, Liquid, Standard Abbe refractometry
[2] = mn = molality of the nth substance listed, in mol/kg; conditions: 86.5 kPa, Liquid; for speed of sound: Frequency=3 MHz, Sing-around technique in a fixed-path interferometer; for mass density: Vibrating tube method

CCCCCCCCn1cc[n+](C)c1.[Br-] [1-methyl-3-octylimidazolium bromide] + c1ccsc1
Conditions | mass density, [2] [kg/m3] | refractive index, [1] | speed of sound, [2] [m/s]
288.15 K, m2 = 0 | 1179.37 | 1.525 | 1605.2
288.15 K, m2 = 0.0087 | 1179.17 | 1.5248 | 1603.7
288.15 K, m2 = 0.022 | 1178.88 | 1.5245 | 1601.5
288.15 K, m2 = 0.032 | 1178.66 | 1.5242 | 1599.9
288.15 K, m2 = 0.0435 | 1178.43 | 1.524 | 1598.3
288.15 K, m2 = 0.0556 | 1178.18 | 1.5238 | 1596.8
288.15 K, m2 = 0.0663 | 1177.97 | 1.5235 | 1595.7
288.15 K, m2 = 0.0821 | 1177.68 | 1.5232 | 1594.3
288.15 K, m2 = 0.0923 | 1177.49 | 1.5229 | 1593.4
288.15 K, m2 = 0.107 | 1177.22 | 1.5226 | 1592.3
288.15 K, m2 = 0.1464 | 1176.57 | 1.5221 | 1590.2
288.15 K, m2 = 0.1765 | 1176.08 | 1.5216 | 1588.8
293.15 K, m2 = 0 | 1176.17 | 1.5236 | 1581.9
293.15 K, m2 = 0.0087 | 1175.97 | 1.5233 | 1581
293.15 K, m2 = 0.022 | 1175.68 | 1.5231 | 1579.5
293.15 K, m2 = 0.032 | 1175.46 | 1.5228 | 1578.6
293.15 K, m2 = 0.0435 | 1175.23 | 1.5226 | 1577.6
293.15 K, m2 = 0.0556 | 1174.97 | 1.5223 | 1576.5
293.15 K, m2 = 0.0663 | 1174.75 | 1.522 | 1575.7
293.15 K, m2 = 0.0821 | 1174.47 | 1.5217 | 1574.6
293.15 K, m2 = 0.0923 | 1174.27 | 1.5214 | 1573.8
293.15 K, m2 = 0.107 | 1174.01 | 1.5211 | 1572.9
293.15 K, m2 = 0.1464 | 1173.34 | 1.5205 | 1571.1
293.15 K, m2 = 0.1765 | 1172.85 | 1.52 | 1570.2
298.15 K, m2 = 0 | 1172.98 | 1.5221 | 1561.9
298.15 K, m2 = 0.0087 | 1172.78 | 1.5219 | 1561.3
298.15 K, m2 = 0.022 | 1172.48 | 1.5216 | 1560.3
298.15 K, m2 = 0.032 | 1172.27 | 1.5213 | 1559.7
298.15 K, m2 = 0.0435 | 1172.02 | 1.521 | 1558.9
298.15 K, m2 = 0.0556 | 1171.78 | 1.5207 | 1558.2
298.15 K, m2 = 0.0663 | 1171.57 | 1.5203 | 1557.5
298.15 K, m2 = 0.0821 | 1171.26 | 1.52 | 1556.5
298.15 K, m2 = 0.0923 | 1171.07 | 1.5197 | 1555.9
298.15 K, m2 = 0.107 | 1170.8 | 1.5193 | 1555.1
298.15 K, m2 = 0.1464 | 1170.16 | 1.5187 | 1553.5
298.15 K, m2 = 0.1765 | 1169.7 | 1.5181 | 1552.3
303.15 K, m2 = 0 | 1169.86 | 1.5206 | 1542.8
303.15 K, m2 = 0.0087 | 1169.65 | 1.5205 | 1542.3
303.15 K, m2 = 0.022 | 1169.35 | 1.5202 | 1541.6
303.15 K, m2 = 0.032 | 1169.13 | 1.5199 | 1541.1
303.15 K, m2 = 0.0435 | 1168.88 | 1.5196 | 1540.7
303.15 K, m2 = 0.0556 | 1168.64 | 1.5192 | 1540.1
303.15 K, m2 = 0.0663 | 1168.42 | 1.5189 | 1539.6
303.15 K, m2 = 0.0821 | 1168.12 | 1.5185 | 1539.1
303.15 K, m2 = 0.0923 | 1167.93 | 1.5182 | 1538.5
303.15 K, m2 = 0.107 | 1167.67 | 1.5179 | 1538
303.15 K, m2 = 0.1464 | 1167.05 | 1.5171 | 1536.6
303.15 K, m2 = 0.1765 | 1166.59 | 1.5166 | 1535.7

CCCCCCn1cc[n+](C)c1.[Br-] [3-hexyl-1-methyl-1H-imidazolium bromide] + c1ccsc1
Conditions | mass density, [2] [kg/m3] | refractive index, [1] | speed of sound, [2] [m/s]
288.15 K, m2 = 0 | 1231.02 | 1.5282 | 1639.4
288.15 K, m2 = 0.0186 | 1230.37 | 1.5277 | 1638.2
288.15 K, m2 = 0.0221 | 1230.25 | 1.5276 | 1638
288.15 K, m2 = 0.0358 | 1229.81 | 1.5273 | 1637.2
288.15 K, m2 = 0.0433 | 1229.58 | 1.5271 | 1636.8
288.15 K, m2 = 0.0632 | 1228.97 | 1.5266 | 1635.7
288.15 K, m2 = 0.0727 | 1228.69 | 1.5264 | 1635.2
288.15 K, m2 = 0.0952 | 1228.1 | 1.5259 | 1634
288.15 K, m2 = 0.1142 | 1227.69 | 1.5255 | 1633
288.15 K, m2 = 0.137 | 1227.21 | 1.5251 | 1631.7
288.15 K, m2 = 0.1603 | 1226.74 | 1.5247 | 1630.7
288.15 K, m2 = 0.1869 | 1226.31 | 1.5242 | 1629.8
293.15 K, m2 = 0 | 1227.43 | 1.5268 | 1610.4
293.15 K, m2 = 0.0186 | 1226.77 | 1.5261 | 1609.5
293.15 K, m2 = 0.0221 | 1226.65 | 1.526 | 1609.3
293.15 K, m2 = 0.0358 | 1226.19 | 1.5257 | 1608.7
293.15 K, m2 = 0.0433 | 1225.96 | 1.5255 | 1608.4
293.15 K, m2 = 0.0632 | 1225.37 | 1.5251 | 1607.5
293.15 K, m2 = 0.0727 | 1225.11 | 1.5249 | 1607.1
293.15 K, m2 = 0.0952 | 1224.52 | 1.5244 | 1606.1
293.15 K, m2 = 0.1142 | 1224.09 | 1.524 | 1605.5
293.15 K, m2 = 0.137 | 1223.63 | 1.5234 | 1604.5
293.15 K, m2 = 0.1603 | 1223.19 | 1.5228 | 1603.7
293.15 K, m2 = 0.1869 | 1222.77 | 1.5223 | 1602.9
298.15 K, m2 = 0 | 1223.74 | 1.5254 | 1587.1
298.15 K, m2 = 0.0186 | 1223.07 | 1.5247 | 1586.3
298.15 K, m2 = 0.0221 | 1222.95 | 1.5246 | 1586.2
298.15 K, m2 = 0.0358 | 1222.49 | 1.5242 | 1585.7
298.15 K, m2 = 0.0433 | 1222.25 | 1.5239 | 1585.4
298.15 K, m2 = 0.0632 | 1221.65 | 1.5233 | 1584.6
298.15 K, m2 = 0.0727 | 1221.38 | 1.523 | 1584.3
298.15 K, m2 = 0.0952 | 1220.8 | 1.5224 | 1583.6
298.15 K, m2 = 0.1142 | 1220.33 | 1.5219 | 1582.9
298.15 K, m2 = 0.137 | 1219.88 | 1.5213 | 1582.2
298.15 K, m2 = 0.1603 | 1219.44 | 1.5208 | 1581.7
298.15 K, m2 = 0.1869 | 1219 | 1.5201 | 1581
303.15 K, m2 = 0 | 1220.35 | 1.5237 | 1568.7
303.15 K, m2 = 0.0186 | 1219.67 | 1.5227 | 1568.1
303.15 K, m2 = 0.0221 | 1219.55 | 1.5226 | 1568
303.15 K, m2 = 0.0358 | 1219.09 | 1.5223 | 1567.6
303.15 K, m2 = 0.0433 | 1218.84 | 1.5221 | 1567.4
303.15 K, m2 = 0.0632 | 1218.25 | 1.5217 | 1566.8
303.15 K, m2 = 0.0727 | 1217.98 | 1.5215 | 1566.6
303.15 K, m2 = 0.0952 | 1217.4 | 1.5211 | 1566
303.15 K, m2 = 0.1142 | 1216.96 | 1.5207 | 1565.5
303.15 K, m2 = 0.137 | 1216.51 | 1.5202 | 1564.9
303.15 K, m2 = 0.1603 | 1216.07 | 1.5197 | 1564.5
303.15 K, m2 = 0.1869 | 1215.66 | 1.5191 | 1564
